Test results as given in PubChem BioAssay (NCI).
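Briefly, cells in 96-well plates were exposed to five compound concentrations for 48 h, and endpoints were estimated by linear interpolation. Definition used: TGI = concentration required for complete inhibition of growth.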

Experiments:
Test in all cases: growth of human tumour cells (NCI), 48 h
[1] = system: HCC-2998 colon
[2] = system: SNB-19 CNS
[3] = system: EKVX NSCLC
[4] = system: LOX IMVI melanoma
[5] = system: HCT-116 colon
[6] = system: MDA-N
[7] = system: SN12C renal
[8] = system: SK-MEL-2 melanoma
[9] = system: OVCAR-8 ovarian
[10] = system: NCI-H23 lung
[11] = system: K-562 leukemia
[12] = system: HCT-15 colon
[13] = system: SK-MEL-5 melanoma
[14] = system: OVCAR-3 ovarian
[15] = system: BT-549 breast
[16] = system: SK-MEL-28 melanoma
[17] = system: MDA-MB-435
[18] = system: SK-OV-3 ovarian
[19] = system: KM12 colon
[20] = system: MDA-MB-231 breast
[21] = system: DU-145 prostate
[22] = system: COLO 205 colon
[23] = system: NCI-H460 lung
[24] = system: HOP-92 NSCLC
[25] = system: A549 NSCLC
[26] = system: SNB-75 CNS
[27] = system: NCI-H522 lung
[28] = system: RXF 393 renal
[29] = system: SW-620 colon
[30] = system: SF-295 CNS
[31] = system: IGROV1 ovarian
[32] = system: MALME-3M melanoma
[33] = system: MCF7 breast
[34] = system: UACC-62 melanoma
[35] = system: HOP-62 NSCLC
[36] = system: UACC-257 melanoma
[37] = system: PC-3 prostate
[38] = system: OVCAR-5 ovarian
[39] = system: OVCAR-4 ovarian
[40] = system: ACHN renal
[41] = system: NCI/ADR-RES ovarian
[42] = system: SF-268 CNS
[43] = system: CAKI-1 renal
[44] = system: HT29 colon
[45] = system: A498 renal
[46] = system: CCRF-CEM leukemia
[47] = system: U251 CNS
[48] = system: T-47D breast
[49] = system: M14 melanoma
[50] = system: HS 578T breast
[51] = system: UO-31 renal
[52] = system: HL-60(TB) leukemia
[53] = system: TK-10 renal
[54] = system: 786-0 renal
[55] = system: NCI-H226 lung
[56] = system: RPMI-8226 leukemia
[57] = system: MOLT-4 leukemia
[58] = system: SR leukemia
[59] = system: SF-539 CNS

## C=CCn1c(-c2ccc([N+](=O)[O-])cc2)csc1=N
[1]
  TGI: > 100 µM
[2]
  TGI: > 100 µM
[3]
  TGI: > 100 µM
[4]
  TGI: 70.5 µM
[5]
  TGI: > 100 µM
[6]
  TGI: > 100 µM
[7]
  TGI: > 100 µM
[8]
  TGI: > 100 µM
[9]
  TGI: > 100 µM
[10]
  TGI: > 100 µM
[11]
  TGI: 91.5 µM
[12]
  TGI: > 100 µM
[13]
  TGI: > 100 µM
[14]
  TGI: > 100 µM
[15]
  TGI: > 100 µM
[16]
  TGI: > 100 µM
[17]
  TGI: > 100 µM
[18]
  TGI: > 100 µM
[19]
  TGI: > 100 µM
[20]
  TGI: > 100 µM
[21]
  TGI: > 100 µM
[22]
  TGI: > 100 µM
[23]
  TGI: > 100 µM
[24]
  TGI: > 100 µM
[25]
  TGI: > 100 µM
[26]
  TGI: 95.6 µM
[27]
  TGI: > 100 µM
[28]
  TGI: 54.4 µM
[29]
  TGI: > 100 µM
[30]
  TGI: > 100 µM
[31]
  TGI: > 100 µM
[32]
  TGI: > 100 µM
[33]
  TGI: > 100 µM
[34]
  TGI: > 100 µM
[35]
  TGI: > 100 µM
[36]
  TGI: > 100 µM
[37]
  TGI: > 100 µM
[38]
  TGI: > 100 µM
[39]
  TGI: > 100 µM
[40]
  TGI: > 100 µM
[41]
  TGI: > 100 µM
[42]
  TGI: > 100 µM
[43]
  TGI: > 100 µM
[44]
  TGI: > 100 µM
[45]
  TGI: > 100 µM
[46]
  TGI: 34.7 µM
[47]
  TGI: > 100 µM
[48]
  TGI: > 100 µM
[49]
  TGI: > 100 µM
[50]
  TGI: > 100 µM
[51]
  TGI: > 100 µM
[52]
  TGI: 45.2 µM
[53]
  TGI: > 100 µM
[54]
  TGI: > 100 µM
[55]
  TGI: > 100 µM

## C[N+](C)(CCNC(=O)c1cccc2cc3ccccc3nc12)Cc1ccc([N+](=O)[O-])s1
[3]
  TGI: > 25 µM
[4]
  TGI: > 25 µM
[5]
  TGI: > 25 µM
[6]
  TGI: > 25 µM
[7]
  TGI: > 25 µM
[8]
  TGI: > 25 µM
[9]
  TGI: > 25 µM
[10]
  TGI: > 25 µM
[11]
  TGI: > 25 µM
[12]
  TGI: > 25 µM
[13]
  TGI: > 25 µM
[14]
  TGI: > 25 µM
[15]
  TGI: > 25 µM
[16]
  TGI: > 25 µM
[17]
  TGI: > 25 µM
[18]
  TGI: > 25 µM
[56]
  TGI: > 25 µM
[19]
  TGI: > 25 µM
[20]
  TGI: > 25 µM
[21]
  TGI: > 25 µM
[22]
  TGI: > 25 µM
[24]
  TGI: > 25 µM
[25]
  TGI: > 25 µM
[26]
  TGI: > 25 µM
[27]
  TGI: > 25 µM
[28]
  TGI: > 25 µM
[29]
  TGI: > 25 µM
[30]
  TGI: > 25 µM
[31]
  TGI: > 25 µM
[32]
  TGI: > 25 µM
[33]
  TGI: > 25 µM
[34]
  TGI: > 25 µM
[35]
  TGI: > 25 µM
[36]
  TGI: > 25 µM
[37]
  TGI: > 25 µM
[38]
  TGI: > 25 µM
[40]
  TGI: > 25 µM
[41]
  TGI: > 25 µM
[42]
  TGI: > 25 µM
[43]
  TGI: > 25 µM
[57]
  TGI: > 25 µM
[44]
  TGI: > 25 µM
[45]
  TGI: > 25 µM
[46]
  TGI: > 25 µM
[47]
  TGI: > 25 µM
[48]
  TGI: > 25 µM
[49]
  TGI: > 25 µM
[50]
  TGI: > 25 µM
[51]
  TGI: > 25 µM
[52]
  TGI: > 25 µM
[53]
  TGI: > 25 µM
[54]
  TGI: > 25 µM
[55]
  TGI: > 25 µM

## N#CC(C#N)=C1C(=O)NC(N)=C1C#N
[1]
  TGI: > 100 µM
[2]
  TGI: > 100 µM
[3]
  TGI: > 100 µM
[4]
  TGI: > 100 µM
[5]
  TGI: > 100 µM
[6]
  TGI: > 100 µM
[7]
  TGI: > 100 µM
[8]
  TGI: > 100 µM
[9]
  TGI: > 100 µM
[10]
  TGI: > 100 µM
[11]
  TGI: > 100 µM
[12]
  TGI: > 100 µM
[13]
  TGI: > 100 µM
[15]
  TGI: > 100 µM
[16]
  TGI: > 100 µM
[17]
  TGI: > 100 µM
[18]
  TGI: > 100 µM
[56]
  TGI: > 100 µM
[19]
  TGI: > 100 µM
[20]
  TGI: > 100 µM
[21]
  TGI: > 100 µM
[22]
  TGI: > 100 µM
[23]
  TGI: > 100 µM
[24]
  TGI: > 100 µM
[25]
  TGI: > 100 µM
[27]
  TGI: > 100 µM
[28]
  TGI: > 100 µM
[29]
  TGI: > 100 µM
[30]
  TGI: > 100 µM
[31]
  TGI: > 100 µM
[32]
  TGI: > 100 µM
[33]
  TGI: > 100 µM
[34]
  TGI: > 100 µM
[35]
  TGI: > 100 µM
[36]
  TGI: > 100 µM
[37]
  TGI: > 100 µM
[38]
  TGI: > 100 µM
[39]
  TGI: > 100 µM
[40]
  TGI: > 100 µM
[41]
  TGI: > 100 µM
[42]
  TGI: > 100 µM
[43]
  TGI: > 100 µM
[57]
  TGI: > 100 µM
[44]
  TGI: > 100 µM
[45]
  TGI: > 100 µM
[46]
  TGI: > 100 µM
[47]
  TGI: > 100 µM
[48]
  TGI: > 100 µM
[49]
  TGI: > 100 µM
[50]
  TGI: > 100 µM
[51]
  TGI: > 100 µM
[52]
  TGI: > 100 µM
[53]
  TGI: > 100 µM
[54]
  TGI: > 100 µM
[55]
  TGI: > 100 µM

## C=C(C)CNC(=S)N(N)c1ccc2ccccc2c1
[1]
  TGI: > 100 µM
[2]
  TGI: > 100 µM
[3]
  TGI: 88.9 µM
[4]
  TGI: > 100 µM
[5]
  TGI: > 100 µM
[6]
  TGI: > 100 µM
[7]
  TGI: > 100 µM
[9]
  TGI: > 100 µM
[10]
  TGI: > 100 µM
[11]
  TGI: > 100 µM
[12]
  TGI: 28.7 µM
[13]
  TGI: > 100 µM
[14]
  TGI: > 100 µM
[15]
  TGI: > 100 µM
[16]
  TGI: > 100 µM
[17]
  TGI: > 100 µM
[18]
  TGI: > 100 µM
[56]
  TGI: > 100 µM
[19]
  TGI: 62.4 µM
[20]
  TGI: > 100 µM
[21]
  TGI: > 100 µM
[22]
  TGI: > 100 µM
[23]
  TGI: > 100 µM
[24]
  TGI: > 100 µM
[25]
  TGI: > 100 µM
[26]
  TGI: > 100 µM
[27]
  TGI: > 100 µM
[28]
  TGI: > 100 µM
[29]
  TGI: > 100 µM
[30]
  TGI: > 100 µM
[31]
  TGI: > 100 µM
[32]
  TGI: > 100 µM
[33]
  TGI: > 100 µM
[34]
  TGI: 76.8 µM
[35]
  TGI: > 100 µM
[36]
  TGI: > 100 µM
[37]
  TGI: > 100 µM
[58]
  TGI: > 100 µM
[38]
  TGI: 77.4 µM
[39]
  TGI: > 100 µM
[40]
  TGI: > 100 µM
[41]
  TGI: > 100 µM
[42]
  TGI: > 100 µM
[57]
  TGI: > 100 µM
[44]
  TGI: > 100 µM
[46]
  TGI: > 100 µM
[47]
  TGI: > 100 µM
[48]
  TGI: > 100 µM
[49]
  TGI: > 100 µM
[50]
  TGI: > 100 µM
[51]
  TGI: > 100 µM
[52]
  TGI: > 100 µM
[53]
  TGI: 71.4 µM
[54]
  TGI: > 100 µM
[59]
  TGI: > 100 µM
[55]
  TGI: > 100 µM
